Assay results as given in patent publication EP4461367A1, “NEW TERNATIN-TYPE CYCLOPEPTIDES FOR USE IN THERAPY” (Centre National de la Recherche Scientifique, priority 2023, dated 2024).
Starred links: 1 amine or outer side, 2 acyl side, 3 side chain; linkers in the order of their positions; H or OH if unused. Non-standard residues stand in square brackets, D forms with d. Residues, ends and D or L forms follow the SMILES beside them. ξ: configuration not given here. X5 = CC(CC(C(=O)[*:2])N(C)[*:1])C(C)OC=O; X2 = CC(COC=O)CC(C(=O)[*:2])N(C)[*:1]; X4 = CC(O)C(C)CC(C(=O)[*:2])N(C)[*:1]; ξNle(4-Me,5-ene) = C=CC(C)CC(N)C(=O)O; X1 = CCC(C)CC(C(=O)[*:2])N(C)[*:1]; X3 = CC(CO)CC(C(=O)[*:2])N(C)[*:1]; ξLeu(3ξ-OH) = CC(C)C(O)C(N)C(=O)O; NMeA = CN[CH](C)C(=O)O

Key:
RRV^GFP = assay: microbe, parasite or virus in culture; details: Ross River virus, Vero, 18 h, read-out: IC50 against RRV
Procedure: At 18 h post-infection, the percentage of GFP expressed by the cells is measured by FACS (Flow cytometric analysis of GFP fluorescence). Data represent the means ± SD of four independent experiments performed in triplicate and are expressed as relative values compared to mock-treated control.

SARS-CoV-2 [1] = assay: SARS-CoV-2 viral progeny, PFU assay (plaque-forming assay) of Huh7 supernatant; type: cell-based; details: Huh7 cells, MOI=0.01, 24 h post-infection, at 0.6 nM, Figure 10B
Procedure: The compound C1 has been tested on the betacoronavirus SARS-CoV-2. Huh7 cells were infected with SARS-CoV-2 (MOI=0.01) and simultaneously treated with increasing concentrations of the compound of formula (I). At 24 h post-infection, cell supernatant was recovered for viral titration (Figure 10B). Viral progeny was measured by a PFU assay (plaque-forming assay) by quantifying infectious particles in the supernatant (PFU/mL).

ZIKV^GFP [2] = assay: ZIKV^GFP antiviral assay, GFP by FACS at 24 h post-infection; type: cell-based; details: Zika virus
Text: The antiviral activity of the compounds (C1 and C3 to C7) of formula (I) has been evaluated against Zika virus as representative of flaviviruses. Vero, A549 or Huh7.5 cells were infected with ZIKV^GFP (MOI=2) and simultaneously treated with increasing concentrations of the compounds of formula (I) (C1 and C3 to C7) or ternatin (ten-fold serial dilutions of considered compound).

DENV = DENV antiviral assay, infected cells by FACS at 72 h post-infection; type: cell-based; details: Dengue virus; Vero cells, DENV MOI = 0.1, 72 h post-infection, Figure 9C; read-out: IC50 against DENV
Procedure: At 72 h post-infection, the percentage of DENV-infected cells was measured by FACS assay.

HCoV-229E-Luc = assay: microbe, parasite or virus in culture; type: cell-based, human alphacoronavirus HCoV-229-E; details: Alphacoronavirus, Huh-7, 24 h, read-out: IC50 (nM) Huh7
SARS-CoV-2 [3] = assay: Preclinical model in human primary bronchial epithelial cells (Mucilair), viral RNA by qRTPCR; type: cell-based; details: Severe acute respiratory syndrome coronavirus 2, Primary bronchial epithelial cell, viral RNA at 72 h post-inoculation, Figure 12, read-out: inhibition of the infection by SARS-CoV-2
Procedure: The compound C1 was evaluated on a preclinical model in human primary bronchial epithelial cells (Mucilair) against SARS-CoV-2 (T. Meunier et al., Antimicrob Agents Chemother. 2022 Feb; 66(2): e01581-21). Mucilair cells were inoculated with SARS-CoV-2 in the presence of compound C1 at 0.75, 7.5 or 75 pM for 1 h at the apical side. Inoculum was removed 1 h post-infection. At 72 h post-inoculation, cells were lysed to extract RNA. Viral RNA was quantified by qRTPCR. For RNA quantification, data are expressed relative to the Mock-treated control.

[4] = Cellular cytotoxicity, MTT assay, Vero E6; type: cell-based; details: african green monkey, Vero E6 cells, 48 h of treatment
Procedure: (§1) Cytotoxicity of the compounds of formula (I) was evaluated on A549, Vero E6 and Huh7 cells by measuring the mitochondrial activity after 48 h of treatment by an MTT assay.

ZIKV^GFP [5] = assay: Time of drug-addition assay, ZIKV^GFP in A549 cells; details: 10 nM, Figure 11C
Procedure: Time of drug-addition assay aims at characterizing the antiviral action of the compounds of the invention on various stages of the dissecting virus infectious cycle.
Compound C1 (10 nM) or vehicle were used for treatment of A549 cells for viral inactivation assay, concurrently to virus input (Entry), after virus exposure (Replication) with specific washing steps and incubation periods (Figure 11A).
The data represent the means ± SD of four independent experiments performed in triplicate, and are expressed as relative values compared to vehicle-treated cells.

ZIKV^GFP [6] = assay: ZIKV^GFP antiviral assay, GFP by FACS at 48 h post-infection; type: cell-based; details: Zika virus, Vero, read-out: IC50 against ZIKV
Text: Vero cells were infected with ZIKV^GFP (MOI=2) and simultaneously treated with increasing concentrations of the compound C1 or ternatin (ten-fold serial dilutions of considered compound).

[7] = Cellular cytotoxicity, MTT assay, A549; type: cell-based; details: human, A549 cells, 48 h of treatment
Procedure: as §1

[8] = Cellular cytotoxicity, MTT assay, Huh7; type: cell-based; details: human, Huh7 cells, 48 h of treatment
Procedure: as §1

[9] = A549, 24 h, read-out: IC50 (nM) A549
[10] = Huh7.5, 24 h, read-out: IC50 (nM) Huh7.5
[11] = Vero, 24 h, read-out: IC50 (nM) Vero

Procedure for adult zebrafish: (D) Total distance travelled at 1 day post injection. […] After injection, fish were observed during 5 days. Statistical analyses were conducted using unpaired t-test comparisons, n = 5 (n: number of fishes per group).

Compound | IC50 (RRV^GFP) [nM] | reduces SARS-CoV-2 viral progeny production (SARS-CoV-2 [1]) [logs] | IC50 (ZIKV^GFP [2]; [9]) [nM] | IC50 (ZIKV^GFP [2]; [10]) [nM] | IC50 (ZIKV^GFP [2]; [11]) [nM] | IC50 (DENV) [nM] | IC50 (HCoV-229E-Luc) [nM] | inhibition at 75 pM (SARS-CoV-2 [3]) [%] | toxicity in adult zebrafish (adult zebrafish; at the effective antiviral dose, injected 10 ng/µL, observed during 5 days) | fine-tune locomotor activity of zebrafish (adult zebrafish; injected with 10 ng/µL, 1 day post injection, Figure 13) | CC50 at 48 h [4] [nM] | stage of viral infection targeted (ZIKV^GFP [5]) | IC50 (ZIKV^GFP [6]) [nM] | CC50 at 48 h [7] [nM] | CC50 at 48 h [8] [nM]
C=CC(C)CC1NC(=O)C(CC(C)C)N(C)C(=O)C(C)N(C)C(=O)C(C(C)CC)NC(=O)C(C(O)C(C)C)NC(=O)C(C)N(C)C(=O)C(C)N(C)C1=O (stereo not shown) [Compound C1, comptonellin A] | 57 | 3 | 4 | 2 | 9 | 42 | 5 | > 98 | no toxicity | did not impair fine-tune locomotor activity | 200 | targets late stages of viral infection | 60 | 11.2 | 4.9
C=CC(C)CC1NC(=O)C(CC(C)CC)N(C)C(=O)C(C)N(C)C(=O)C(C(C)CC)NC(=O)C(C(O)C(C)C)NC(=O)C(C)N(C)C(=O)C(C)N(C)C1=O (stereo not shown) [Compound C3, comptonellin C] (cyclo([X1][ξNle(4-Me,5-ene)][NMeA][NMeA][ξLeu(3ξ-OH)]I[NMeA]); configuration not given here) | – | – | 0.5 | 0.003 | 9 | – | 2.4 | – | – | – | 412 | – | – | – | –
C=CC(C)CC1NC(=O)C(CC(C)CO)N(C)C(=O)C(C)N(C)C(=O)C(C(C)CC)NC(=O)C(C(O)C(C)C)NC(=O)C(C)N(C)C(=O)C(C)N(C)C1=O (stereo not shown) [Compound C4, comptonellin D] (cyclo([X3][ξNle(4-Me,5-ene)][NMeA][NMeA][ξLeu(3ξ-OH)]I[NMeA]); configuration not given here) | – | – | 26 | 12 | 163 | – | 96.8 | – | – | – | 3760 | – | – | 52.8 | 9.35
C=CC(C)CC1NC(=O)C(CC(C)C(C)O)N(C)C(=O)C(C)N(C)C(=O)C(C(C)CC)NC(=O)C(C(O)C(C)C)NC(=O)C(C)N(C)C(=O)C(C)N(C)C1=O (stereo not shown) [Compound C5, comptonellin E] (cyclo([X4][ξNle(4-Me,5-ene)][NMeA][NMeA][ξLeu(3ξ-OH)]I[NMeA]); configuration not given here) | – | – | 40 | 11 | 244 | – | 98.5 | – | – | – | 4810 | – | – | 99.8 | 31.9
C=CC(C)CC1NC(=O)C(CC(C)COC=O)N(C)C(=O)C(C)N(C)C(=O)C(C(C)CC)NC(=O)C(C(O)C(C)C)NC(=O)C(C)N(C)C(=O)C(C)N(C)C1=O (stereo not shown) [Compound C6, comptonellin F] (cyclo([X2][ξNle(4-Me,5-ene)][NMeA][NMeA][ξLeu(3ξ-OH)]I[NMeA]); configuration not given here) | – | – | 13 | 9 | 115 | – | 36.8 | – | – | – | 3530 | – | – | 41 | 22.1
C=CC(C)CC1NC(=O)C(CC(C)C(C)OC=O)N(C)C(=O)C(C)N(C)C(=O)C(C(C)CC)NC(=O)C(C(O)C(C)C)NC(=O)C(C)N(C)C(=O)C(C)N(C)C1=O (stereo not shown) [Compound C7, comptonellin G] (cyclo([X5][ξNle(4-Me,5-ene)][NMeA][NMeA][ξLeu(3ξ-OH)]I[NMeA]); configuration not given here) | – | – | 46 | 16 | 176 | – | 15 | – | – | – | 379 | – | – | 80.6 | 93.9
COc1cc(-c2oc3c(OC)c(OC)cc(O)c3c(=O)c2OC)ccc1O [Ternatin, ternatin] | 977 | – | 92 | 23 | 584 | 493 | 157 | – | – | – | – | – | 860 | – | –
